Data published in PMC10861534, “Poly-γ-glutamylation of biomolecules” (Nature Communications, 2024).

Experiments:
[1] = molecular target: T1, Tm-DHFR (Thermotoga maritima, UniProt Q60034); test: 1H NMR of reaction; assay type: biochemical; conditions: 1 mM folate-2, 2 mM NADPH, pH 7.0, 37 °C; reduced to tetrahydrofolate-2
T1 construct: gene folA; synthesized ORF in pProEX-HTb, E. coli BL21(DE3) LOBSTR; TALON and SEC
T1 sequence (Q60034 1-169): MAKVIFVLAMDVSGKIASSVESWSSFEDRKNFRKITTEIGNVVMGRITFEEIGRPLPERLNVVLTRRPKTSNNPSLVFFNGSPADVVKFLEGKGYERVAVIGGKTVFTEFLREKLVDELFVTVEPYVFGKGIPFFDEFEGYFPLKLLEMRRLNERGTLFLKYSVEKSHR

[2] = molecular target: T2, Mtb-FPGS (Mycobacterium tuberculosis, UniProt I6Y0R5)
T2 construct: gene folC

[3] = molecular target: T3, Af-CofE (Archaeoglobus fulgidus, UniProt O28028); test: LC-MS of reaction products; assay type: biochemical; conditions: 2 mM analogue, 50 uM F420-1, 2 mM GTP, 2 mM MgCl2/MnCl2, pH 8.5, 37 °C; chain terminator
T3 construct: codon-optimized ORF in pProEX-HTb, E. coli BL21(DE3) LOBSTR; N-terminal His6-tag removed by rTEV; co-purified flavins washed off with urea/KBr; homodimer

[4] = molecular target: T4, hFPGS (Homo sapiens, UniProt Q05932); test: LC-MS of reaction products; assay type: biochemical; conditions: 5 mM analogue, 0.5 mM folate, 5 mM ATP, 10 mM MgCl2, pH 8.5, 37 °C; chain terminator
T4 construct: gene FPGS; ORF in pFastBacHTa, N-terminal His6-tag, Sf9 insect cells
T4 sequence (Q05932 43-587): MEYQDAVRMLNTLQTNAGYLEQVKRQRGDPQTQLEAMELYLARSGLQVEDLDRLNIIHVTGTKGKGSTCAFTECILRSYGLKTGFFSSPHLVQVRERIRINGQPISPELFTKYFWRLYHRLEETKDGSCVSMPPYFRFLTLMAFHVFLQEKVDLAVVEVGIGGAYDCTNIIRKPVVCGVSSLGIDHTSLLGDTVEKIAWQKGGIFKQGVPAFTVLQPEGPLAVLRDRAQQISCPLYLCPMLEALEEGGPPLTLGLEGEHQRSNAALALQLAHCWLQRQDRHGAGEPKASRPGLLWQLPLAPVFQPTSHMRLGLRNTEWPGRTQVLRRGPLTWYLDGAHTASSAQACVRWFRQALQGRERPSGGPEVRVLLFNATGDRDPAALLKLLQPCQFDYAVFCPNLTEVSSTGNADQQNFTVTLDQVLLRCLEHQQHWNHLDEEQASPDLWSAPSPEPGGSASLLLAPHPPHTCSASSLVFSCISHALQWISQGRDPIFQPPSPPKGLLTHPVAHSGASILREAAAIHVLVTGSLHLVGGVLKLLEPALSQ

[5] = molecular target: Mtb-FbiB (Mycobacterium tuberculosis, UniProt P9WP79)
Sequence of Mtb-FbiB (P9WP79 whole entry): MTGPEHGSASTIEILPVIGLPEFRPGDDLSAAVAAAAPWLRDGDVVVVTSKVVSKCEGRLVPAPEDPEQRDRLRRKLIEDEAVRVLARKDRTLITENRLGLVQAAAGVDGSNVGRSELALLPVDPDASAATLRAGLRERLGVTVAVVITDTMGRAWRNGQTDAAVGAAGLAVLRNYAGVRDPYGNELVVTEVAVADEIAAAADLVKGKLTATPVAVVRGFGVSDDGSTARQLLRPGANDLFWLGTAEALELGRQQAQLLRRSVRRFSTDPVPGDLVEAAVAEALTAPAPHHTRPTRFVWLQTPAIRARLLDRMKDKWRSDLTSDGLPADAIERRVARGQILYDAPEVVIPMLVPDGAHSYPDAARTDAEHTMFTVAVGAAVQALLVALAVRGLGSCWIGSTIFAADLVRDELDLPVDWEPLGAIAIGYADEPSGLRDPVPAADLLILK

T2 sequence (I6Y0R5 whole entry): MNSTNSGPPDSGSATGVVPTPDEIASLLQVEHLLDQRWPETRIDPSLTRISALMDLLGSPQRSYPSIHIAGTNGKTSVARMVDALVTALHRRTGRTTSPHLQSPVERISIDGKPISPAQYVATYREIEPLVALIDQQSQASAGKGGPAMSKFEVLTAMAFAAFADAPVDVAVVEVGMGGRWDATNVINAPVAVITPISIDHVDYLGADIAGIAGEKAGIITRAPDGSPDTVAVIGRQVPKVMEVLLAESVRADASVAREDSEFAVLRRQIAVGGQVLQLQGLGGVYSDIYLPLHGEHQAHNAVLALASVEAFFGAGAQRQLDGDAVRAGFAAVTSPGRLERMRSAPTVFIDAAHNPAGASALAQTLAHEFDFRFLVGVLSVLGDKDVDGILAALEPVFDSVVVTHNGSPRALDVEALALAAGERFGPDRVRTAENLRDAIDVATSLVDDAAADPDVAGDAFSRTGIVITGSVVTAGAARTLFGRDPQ
T3 sequence (O28028 whole entry): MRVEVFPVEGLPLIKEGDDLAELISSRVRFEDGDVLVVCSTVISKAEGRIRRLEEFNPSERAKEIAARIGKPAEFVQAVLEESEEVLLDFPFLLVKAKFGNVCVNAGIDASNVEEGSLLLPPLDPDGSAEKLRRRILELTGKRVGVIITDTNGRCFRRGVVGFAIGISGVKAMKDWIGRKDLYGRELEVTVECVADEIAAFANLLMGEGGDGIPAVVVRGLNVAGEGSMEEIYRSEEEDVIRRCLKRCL

SMILES | 1H NMR of reaction [1] | LC-MS of reaction products [2] | LC-MS of reaction products [3] | LC-MS of reaction products [4] | LC-MS of reaction products [5]
Nc1nc2ncc(CNc3ccc(C(=O)N[C@@H](CCC(=O)N[C@@H](CCC(=O)O)C(=O)O)C(=O)O)cc3)nc2c(=O)[nH]1 [folate-2, pteroyldi-γ-L-glutamic acid] | pre-incubation with Tm-DHFR initiated the production of tetrahydrofolate-2 | addition of only a single L-glutamate molecule to afford folate-3 as the major product | – | – | –
N[C@@H](CC[N+](=O)[O-])C(=O)O [4-nitro-L-2-aminobutyric acid, (2S)-2-Amino-4-nitrobutanoic acid] | – | acts as a substrate across all enzymes and both cofactors | acts as a substrate across all enzymes and both cofactors | acts as a substrate across all enzymes and both cofactors | acts as a substrate across all enzymes and both cofactors
